We go through two compounds from article PMC7576480, “Hydroxy-Propil-β-Cyclodextrin Inclusion Complexes of two Biphenylnicotinamide Derivatives: Formulation and Anti-Proliferative Activity Evaluation in Pancreatic Cancer Cell Models” (International Journal of Molecular Sciences, 2020).

Series [1] deals with MIA PaCa-2 cells. The arrangement: method as in PMID 30583077. Particulars: low doses; cited from earlier work.
Series [2] relates to AsPC-1 cells. Nature of the series: MTT cell proliferation assay. The series is classed as cell-based. The following applies: Homo sapiens, ASPC1, AsPC-1, 72 h, concentration in terms of PTA, ± SD. Here is the method:
(§1) Human pancreatic ductal adenocarcinoma (PDAC) PANC-1 cells, human pancreas adenocarcinoma ascites metastasis cells AsPC-1, and undifferentiated human pancreatic carcinoma MIAPaCa-2 cells, were purchased from ATCC®. PANC-1 and AsPC-1 cells were cultured in Dulbecco’s modified Eagle’s medium (DMEM), supplemented with fetal bovine serum (FBS), to a final concentration of 10%, L-glutamine 1% (v/v), and penicillin/streptomycin 1% (v/v). MIA PaCa-2 cells were grown in Roswell Park Memorial Institute (RPMI) medium, supplemented as above, and in addition with horse serum, to a final concentration of 2.5%. Cells were maintained in a humid atmosphere of 95% air and 5% CO2 at 37 °C. All materials for cell culturing were purchased from EuroClone (Pero, Milan, Italy).
(§2) The 3-(4,5-dimethylthiazol-2-yl)-2,5- diphenyltetrazoliumbromide (MTT) assay was performed as previously described to investigate the effect of hydroxy-propil-β-cyclodextrin-complexed PTA34 and PTA73 (PTA34/HP-β-CD and PTA73/HP-β-CD, respectively) on cell viability of PANC-1, AsPC-1, and MIA PaCa-2 cell lines. The same uncomplexed compounds and HP-β-CD alone were also tested as reference compounds. Untreated cells were used as a […]. In particular, cells were seeded in 96 well plates at a density of 5000 cells/well, incubated for 24 h in culturing medium, and subsequently treated for 72 h, with compounds at 0.01–10 µM concentrations range, in terms of PTA34 or PTA73, included. HP-β-CD–cyclodextrin alone was tested in the concentrations range corresponding to that present in the complex, namely 2.9–2900 µg/mL. After the incubation period 10 µL of a 0.5% (w/v) MTT/PBS solution were added to each well, and the incubation was prolonged further for 2 h. After this period, medium was removed and replaced with 100 µL of DMSO. The absorbance in each well was measured by a microplate reader (MULTISKAN Sky, ThermoScientific). The results are shown as dose/effect plots of the mean of three different experiments. The IC50 was defined as the drug concentration yielding a fraction of affected (no surviving) cells = 0.5, normalized with untreated cells, and was calculated utilizing CalcuSyn v.1.1.1 software (Biosoft, UK).

The subject of series [3] is MIA PaCa-2 cells. Nature of the series: MTT cell proliferation assay. It counts as cell-based. The following applies: Homo sapiens, MIA PaCa-2, 72 h, concentration in terms of PTA, ± SD. The method, then: as §1, §2
The subject of series [4] is Panc-1 cells. Nature of the series: MTT cell proliferation assay. It counts as cell-based. Particulars: Homo sapiens, Panc-1, 72 h, concentration in terms of PTA, ± SD. Here is the method:
as §1, §2

The nature of series [5]: Phase-solubility study (Higuchi–Connors), apparent 1:1 stability constant with HP-β-CD. Particulars: complex with HP-β-CD, from the phase solubility diagram, 37 ± 0.5 °C. The series is classed as physicochemical. The method, then:
(§3) The phase solubility study was conducted according with Higuchi and Connors. In detail, an excess of PTA34 or PTA73 was added to 1 mL of solutions containing HP-β-CD in the appropriate concentration (0–45% w/v) in 4 mL vials, with screw caps to avoid evaporation. The obtained mixtures were vigorously vortexed for about 5 min, and the suspensions thus obtained were placed under constant stirring in a thermostat bath at 37 ± 0.5 °C for about 48 h, until the saturation of the system was achieved. Then, each suspension was centrifuged at 13,200 rpm (MIKRO 22 R, Hettich Zentrifugen, Germany) in order to remove the uncomplexed drug and the supernatant was analyzed by spectrophotometry for the quantification of the drug, after appropriate dilution. All determinations were conducted at least in triplicate. The obtained data were used to determine the apparent stability 1:1 constant (K1:1) of the HP-β-CD inclusion complexes with the biphenylnicotinamide derivatives, using the Higuchi and Connors equation: K1:1=slope/S0(1−slope) where slope is the slope of the obtained phase solubility diagrams straight line, and S0 represents PTA34 or PTA73 intrinsic solubility determined in the same way.

The subject of series [6] is AsPC-1 cells. Nature of the series: Cell cycle analysis by flow cytometry (PI staining). The following applies: AsPC-1, 1 µM in terms of PTA, 24 h. It counts as cell-based, human. The method, then: (§4) For the cell cycle analysis, human pancreatic cancer cells were seeded in 60 mm dishes at a density of 500,000/well and incubated for 24 h at 37 °C, with PTA34, PTA73 both complexed and not at concentration 1 µM in terms of PTA’s, and with cyclodextrin alone at concentration equal to 290 µg/mL. Cells were then harvested, washed twice in ice-cold PBS pH 7.4, fixed in 4 mL of 70% ethanol, and stored at -20 °C until analysis. The cell cycle modulation induced by treatments was studied as previously described by propidium iodide (PI) staining; the pellet was resuspended in PBS without Ca^2+ and Mg^2+, containing 1 mg/mL RNase, 0.01% NP40, and 50 ĉg/mL PI (Sigma), and then flow cytometry analysis was performed on Attune NxT acoustic focusing cytometer (Life Technologies). Data were interpreted using the CytExpert software v.1.2, provided by the manufacturer.
(In general: A flow cytometer gives signals particle by particle.)

The test system of series [7] is MIA PaCa-2 cells. The series is described as above. Particulars: MIA PaCa-2, 1 µM in terms of PTA, 24 h. It counts as cell-based, human. The method, then: as §4
The subject of series [8] is Panc-1 cells. Described as above. The series is classed as cell-based, human. The following applies: PANC-1, 1 µM in terms of PTA, 24 h. Here is the method: as §4
Series [9] is described as follows: Solubility in ultra-pure water and in HP-β-CD solutions at 37 °C. The series is classed as physicochemical. Particulars: for solubility: 37 °C, thermodynamic from solid, ultra-pure water, 37 ± 0.5 °C; for Increase in aqueous solubility: HP-β-CD 45% w/v versus water alone. Here is the method: Quantitative analysis of PTA34 and PTA73 was carried out by spectrophotometry using a dual-beam UV-VIS Lambda 20 Bio spectrophotometer (Perkin Elmer, Milan, Italy) and quartz cuvettes, with a capacity of 1 mL, using methanol as solvent. In the case of PTA34 the reading was carried out at a wavelength of 320 nm, and a calibration straight line (r^2 = 0.9979), in the concentration range between 0.15 mg/mL (4.45 × 10^−4 mM) and 0.015 mg/mL (4.45 × 10^−5 mM), was obtained. For PTA73 the reading was carried out at a wavelength of 340 nm, and a calibration straight line (r^2 = 0.9999) in the concentration range between 0.16 mg/mL (5.01 × 10^−4 mM) and 0.016 mg/mL (5.01 × 10^−5 mM), was obtained.
as §3

[10] abbreviates: HP-β-CD 0% w/v, read-out: Water solubility (intrinsic solubility, S0).
The mark [11] stands for this setting: read-out: Intrinsic solubility (S0).

Like-named read-outs stand apart in the source and are kept apart here.

For the compound `O=C(Nc1ccc(-c2ccc(F)cc2)cc1[N+](=O)[O-])c1cccnc1` [PTA34], in the series with MIA PaCa-2 cells [1], the Antitumor activity entry is listed as “remarkable antitumor activity”. Further, the figures for the half-maximal inhibitory concentration (IC50) in the series with AsPC-1 cells [2], in the series with MIA PaCa-2 cells [3] and in the series with Panc-1 cells [4] were 1900 ± 300 nM, 310 ± 40 nM and 2500 ± 500 nM, respectively. The “1:1 apparent formation (equilibrium) constant, Ks” value in [5] is 503.9 M⁻¹. Besides, the “Cells arrested in G2/M phase” value in the series on AsPC-1 cells [6] stood at 93%; in the series with MIA PaCa-2 cells [7], 36.7%; in the series with Panc-1 cells [8] it was 57.9%. The solubility (usually the dissolved amount per volume that the medium holds) turned out to be 1.95 ± 0.35 µg/mL in [9] (setting [10]) and 5.78 µM in series [9] (setting [11]). Besides, the “Increase in aqueous solubility” value in series [9] is on record as “about 150 times”.
Take `O=C(Nc1ccc(-c2ccccc2)cc1[N+](=O)[O-])c1cccnc1` [PTA73]: the Antitumor activity entry in the series on MIA PaCa-2 cells [1] is recorded as “remarkable antitumor activity”. The values for the IC50 in the series with AsPC-1 cells [2], in the series on MIA PaCa-2 cells [3] and with Panc-1 cells [4] were 2300 ± 600 nM, 6 ± 2 nM and 1500 ± 200 nM, respectively. The “1:1 apparent formation (equilibrium) constant, Ks” value in [5] stood at 369.2 M⁻¹. For the same compound, the “Cells arrested in G2/M phase” value with AsPC-1 cells [6] turned out to be 94.1%; with MIA PaCa-2 cells [7], 45.2%; in the series with Panc-1 cells [8], 64.9%. Further, the solubility in series [9] (setting [10]) is 7.16 ± 0.34 µg/mL; in series [9] (setting [11]), 22.4 µM. Also, in [9], the “Increase in aqueous solubility” value is recorded as around 106 times.
